Patent publication US20060263427A1, “Quinine formulations” (priority 2005, published 2006)
Where a name gives a salt, the structure may show the parent alone. Read-outs that look alike come from different tables or passages of the source.

Experiments:
clinical [1] = settings: human, in vivo
clinical [2] = settings: human, plasma, oral
[3] = fasted, non-transformed data, least squares mean
[4] = QTc interval measurements (ECG) over 24 hours after single oral dose of Quinine Sulfate (Example 6, Studies 1 and 2); assay type: in vivo, human
[5] = Mean plasma quinine concentration over 24 hours after single oral dose of Quinine Sulfate (Example 6, Studies 1 and 2); assay type: in vivo, human; settings: for concentration at 0 h / concentration at 2 h / concentration at 4 h / concentration at 6 h / concentration at 12 h / concentration at 24 h: both sexes, human, plasma, oral
[6] = in vivo
[7] = 324 mg, 1 capsule, fasted
[8] = 324 mg, Study 1, B: 324 mg capsule, fed
[9] = 324 mg, Study 2, C: 324 mg capsule, fasting
[10] = 648 mg, Study 2, D: 648 mg (two capsules), fasting
[11] = non-transformed data, least squares mean

- Tmax (clinical [1]; 324 mg): 2.78 h
- Tmax (clinical [1]; 648 mg): 2.8 h
- AUC(0-inf) (clinical [1]; 648 mg, AUC0-INF): 59200 ng·h/mL
- AUC0-t (clinical [1]; 648 mg, AUC0-t): 54400 ng·h/mL
- Cmax (clinical [1]; 648 mg, Cmax): 3240 ng/mL
- Tmax (clinical [2]; 260 mg): 2.61 h
- AUC0-t (clinical [2]; 324 mg): 30300 ng·h/mL
- AUC(0-inf) (clinical [2]; 324 mg): 32100 ng·h/mL
- Cmax (clinical [2]; 324 mg): 2280 ng/mL
- Tmax (clinical [2]; 324 mg): 2.75 h
- kelim ([3]; 324 mg, 1 capsule): 0.0592
- kelim ([3]; 648 mg, 2 capsules): 0.0572
- Mean Plasma Concentration ([5]; Study 2, C: 324 mg capsule, fasting, 0 hours): 0; ng/ml
- concentration at 0 h ([5]; 324 mg, Study 1, B: 324 mg capsule, fed, 0 hours): 0 ng/mL
- concentration at 2 h [5, 8]: 835 ng/mL
- concentration at 4 h [5, 8]: 2260 ng/mL
- concentration at 6 h [5, 8]: 2010 ng/mL
- concentration at 12 h [5, 8]: 1220 ng/mL
- concentration at 24 h [5, 8]: 543 ng/mL
- concentration at 2 h [5, 9]: 1860 ng/mL
- concentration at 4 h [5, 9]: 1880 ng/mL
- concentration at 6 h [5, 9]: 1710 ng/mL
- concentration at 12 h [5, 9]: 994 ng/mL
- concentration at 24 h [5, 9]: 475 ng/mL
- concentration at 0 h ([5]; 648 mg, Study 2, D: 648 mg (two capsules), fasting, 0 hours): 0 ng/mL
- concentration at 2 h [5, 10]: 2810 ng/mL
- concentration at 4 h [5, 10]: 2950 ng/mL
- concentration at 6 h [5, 10]: 2720 ng/mL
- concentration at 12 h [5, 10]: 1700 ng/mL
- concentration at 24 h [5, 10]: 912 ng/mL
- AUC0-INF ([6]; human, 648 mg): 61817.27 ng·h/mL
- AUC0-t ([6]; human, 648 mg): 56394.65 ng·h/mL
- Cmax ([6]; human, 648 mg): 3174.89 ng/mL
- dose proportionality of AUCT and AUCinf [6]: proportional increase
- dose proportionality of Cmax [6]: nonlinear dose proportionality
- Cmax ([7]; Ln-transformed data, geometric mean): 2242.70 ng/mL
- AUC0-INF [7, 11]: 33280.89 ng·h/mL
- AUC0-t [7, 11]: 31298.12 ng·h/mL
SMILES: C=C[C@H]1C[N@@]2CC[C@H]1C[C@H]2[C@H](O)c1ccnc2ccc(OC)cc12 [Quinine Sulfate, cinchonan-9-ol, 6′-methoxy-, (8α,9R)-, sulfate (2:1)]
- subjects with significant prolongations in QTc interval (>450 msec) ([4]; 50 subjects, single oral doses 324 mg or 648 mg): seven
- relation of mean QTc value to plasma concentration ([4]; single oral doses, Table 1): an increase in the mean QTc value was found to correspond with the peak quinine plasma concentration
